Measurements as given in ChEMBL document CHEMBL1201862, “PubChem BioAssay data set” (2004).
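Protocol summary: plate cells (96-well), add compound at 5 concentrations, incubate 48 h, interpolate endpoints linearly. The concentration for 50% growth inhibition is given as GI50.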 The source made the active and inactive calls. Rule as the data show it: active = GI50 up to about 1.1 µM and inactive = higher.

Legend:
Assay in all cases: NCI anticancer screen, dose series, 48 h
[1] = test system: KM12
[2] = test system: ACHN
[3] = test system: NCI-H23
[4] = test system: SF-295
[5] = test system: SN12C
[6] = test system: SNB-19
[7] = test system: COLO 205
[8] = test system: MDA-MB-435
[9] = test system: SF-268
[10] = test system: HOP-62
[11] = test system: CAKI-1
[12] = test system: EKVX
[13] = test system: SK-MEL-2
[14] = test system: TK-10
[15] = test system: U-251
[16] = test system: HCT-116
[17] = test system: UACC-257
[18] = test system: DU-145
[19] = test system: A549
[20] = test system: UO-31

Measured: GI50

C[C@H]1ON2CCC[C@@H]2[C@@H]1C(=O)N1C2CC3CCC2(CS1(=O)=O)C3(C)C (some centres not stated)
inactive: [1] > 100 µM | [2] > 100 µM | [3] > 100 µM | [4] > 100 µM | [5] > 100 µM | [6] > 100 µM | [7] > 100 µM | [8] > 100 µM | [9] > 100 µM | [10] > 100 µM | [11] > 100 µM | [12] > 100 µM | [13] > 100 µM | [14] > 100 µM | [15] > 100 µM | [16] > 100 µM | [17] > 100 µM | [18] > 100 µM | [19] > 100 µM

CCCCCCCCCCCCNC(=O)NCC(OCC)OCC
inactive: [1] > 10 µM | [2] > 10 µM | [3] > 10 µM | [4] > 10 µM | [5] > 10 µM | [6] > 10 µM | [7] > 10 µM | [8] > 10 µM | [9] > 10 µM | [10] > 10 µM | [11] > 10 µM | [12] > 10 µM | [13] > 10 µM | [14] > 10 µM | [15] > 10 µM | [16] > 10 µM | [17] > 10 µM | [18] > 10 µM | [19] > 10 µM

CN(C)c1ccc2c(c1)oc(=O)c1ccccc12
inactive: [2] 18.5 µM | [3] 8.05 µM | [4] 19.1 µM | [5] 12.8 µM | [6] 14.3 µM | [7] 12.2 µM | [8] 9.31 µM | [9] 10.4 µM | [10] 29.2 µM | [11] 11.4 µM | [12] 16.7 µM | [13] 6.24 µM | [14] 19.7 µM | [15] 11.2 µM | [16] 12.3 µM | [17] 14.4 µM | [18] 10.7 µM | [19] 14.7 µM

COC(=O)N1CC2(CO)C3CC=C(C(=O)Nc4ccccc4Br)C2C1C3Br (configuration not stated)
inactive: [1] > 50 µM | [2] > 50 µM | [3] > 50 µM | [4] > 50 µM | [6] > 50 µM | [7] > 50 µM | [8] > 50 µM | [9] > 50 µM | [10] > 50 µM | [11] > 50 µM | [12] > 50 µM | [13] > 50 µM | [20] > 50 µM | [14] > 50 µM | [15] > 50 µM | [17] > 50 µM | [18] > 50 µM | [19] > 50 µM

O=c1[nH]nc(Cc2ccc(Cl)cc2)n1/N=C/c1ccco1
inactive: [1] > 100 µM | [2] > 100 µM | [3] 34.8 µM | [4] 46.6 µM | [5] > 100 µM | [6] 25.4 µM | [7] > 100 µM | [8] > 100 µM | [9] 38.3 µM | [10] 48.6 µM | [11] > 100 µM | [12] > 100 µM | [13] 40.1 µM | [20] > 100 µM | [15] 39.7 µM | [16] 93.1 µM | [17] > 100 µM | [18] > 100 µM | [19] > 100 µM

N#Cc1c(-c2ccc([N+](=O)[O-])cc2)cc(-c2ccc(Nc3ccnc4cc(Cl)ccc34)cc2)[nH]c1=O
inactive: [1] 4.01 µM | [2] > 100 µM | [3] 93.3 µM | [4] > 100 µM | [6] 63.8 µM | [7] > 100 µM | [8] > 100 µM | [9] > 100 µM | [10] 67.3 µM | [11] > 100 µM | [12] > 100 µM | [13] > 100 µM | [20] > 100 µM | [14] 98.9 µM | [15] > 100 µM | [16] > 100 µM | [18] > 100 µM | [19] > 100 µM

O=C1c2cccnc2S(=O)(=O)N1c1ccc(Br)cc1
inactive: [1] > 100 µM | [3] > 100 µM | [4] > 100 µM | [5] > 100 µM | [6] 75.7 µM | [7] > 100 µM | [8] > 100 µM | [9] > 100 µM | [10] > 100 µM | [11] > 100 µM | [12] > 100 µM | [13] > 100 µM | [20] > 100 µM | [14] > 100 µM | [15] > 100 µM | [16] > 100 µM | [17] > 100 µM | [18] > 100 µM | [19] > 100 µM

Cc1ccc(-n2nnc3c(NNc4ccccc4)n[nH]c(=O)c32)cc1
inactive: [1] > 100 µM | [2] > 100 µM | [3] 72.1 µM | [4] 55.2 µM | [5] > 100 µM | [6] 59 µM | [7] 75 µM | [8] 74.6 µM | [9] > 10 µM | [10] 66.2 µM | [11] > 100 µM | [12] 80.7 µM | [13] 67.5 µM | [14] 28.1 µM | [15] 52.1 µM | [16] 82.8 µM | [17] > 100 µM | [18] > 100 µM | [19] 55.6 µM

CC1CC[C@]2(C(=O)O)CCC3(C)C(=C2[C@H]1C)C=CC1[C@@]2(C)CC[C@H](O)C(C)(C)C2CC[C@]13C (some centres not stated)
inactive: [1] 31 µM | [2] 16.4 µM | [3] 24.9 µM | [4] 19.9 µM | [5] 59.3 µM | [6] 30.5 µM | [7] 44.4 µM | [8] 63.1 µM | [9] 27.7 µM | [10] 21.1 µM | [11] 22.8 µM | [12] 32.8 µM | [13] 64.9 µM | [14] 33.5 µM | [15] 29 µM | [16] 17.6 µM | [17] 45 µM | [18] 16.6 µM | [19] 11.8 µM

CCSC12CC3c4cccc5c4C(CN5C(=O)c4ccccc4)CC3(O1)N(C)C2=O (configuration not stated)
inactive: [1] 45.4 µM | [2] 33.6 µM | [3] 24.7 µM | [4] 45.6 µM | [5] 17.2 µM | [6] 87.3 µM | [7] 26.1 µM | [8] 34.8 µM | [9] 42.7 µM | [11] 92 µM | [12] 24.2 µM | [13] 40.3 µM | [20] 47.3 µM | [14] 48.5 µM | [15] 38.5 µM | [16] 30.1 µM | [17] 29.4 µM | [18] 51.8 µM | [19] 38.9 µM
